According to patent publication US20230321101A1, “METHODS AND USES OF HALOFUGINONE” (The Regents of the University of California, priority 2020, published 2023):
Entries after “also recorded” stand apart in the source; their conditions may differ. Where two headings read alike, the source gives them in different places.

How the values were obtained:
[1] = test system: DENV-2 (Dengue); test: DENV-2 antiviral immunofluorescence assay in Huh7 cells; type: cell-based; conditions: Dengue virus, DENV2, Huh-7, read-out: EC50 DENV-2
Procedure: (§1) Experimental Procedure. The antiviral activity of 8 dilutions of each compound was explored by adding the drug to the assay cells 2 h after infection with the different viruses. Virus and compounds were left on the cells for the entire duration of the experiment (28 h for Zika virus and 24 h for all other viruses). The cytotoxicity of the same range of concentrations of compounds was determined by LDH release assay in the same cell lines.
(§2) Cell plating. Cells were detached and counted following SOP-RA 003 and SOP-RA 004. Count was recorded in the Cell Count Logbook, Volume 1. For each virus four plates were seeded, two for the antiviral assay and two for the cytotoxicity assay. Cells were seeded in 100 μl/well of complete media at the following densities: • Huh7: 8,000 cells/well (Dengue) • SH-SY5Y: 10,000 cells/wells (Zika) • HeLa Tzmbl: 8,000 cells/well (HIV)
(§3) Compounds dilutions. The 22.1 mM stocks were further diluted to 1 mM in DMSO by adding 211 μl of DMSO to 10 μl of compound. Three serial dilutions were prepared in different media for different viruses/cells. For each dilution, drugs were prepared at twice the final concentration in 50 μl volume, because they are diluted to the final concentration by an equal volume of virus or media.
(§4) Infection. Cells were infected in 50 μl of supplemented media/well at the following multiplicity of infection (MOI): • DENV-2, MOI 1 • ZIKV, MOI 5 • HIV, MOI 0.5
(§5) After removing culture media from cells, 50 μl of virus dilution were added to all wells except Column 11 (uninfected control), where the same volume of supplemented media was added. […]
(§6) Infectivity readout. […] The primary antibodies were detected with an Alexa-488 conjugate secondary antibody (Life Technologies, A11001), and nuclei were stained with Hoechst. Images were acquired on a CellInsight CX5 high content platform (Thermo Scientific) using a 4× objective, and percentage infection calculated using CellInsight CX5 software (infected cells/total cells×100).
(§7) Determination of % Inhibition—IF assay. Normalized percentages of inhibition were calculated using the following formula: […]

[2] = test system: recombinant SARS-CoV-2 spike RBD protein binding to Calu-3 cells
[3] = test system: SARS-CoV-2 spike RNA; test: microbe, parasite or virus in culture; type: cell-based; conditions: Vero E6
[4] = test system: Huh 7.5 cells; test: Cell viability of Huh 7.5 cells, alamarBlue; type: cell-based, human; conditions: Huh 7.5, 24 hr
Procedure: FIG. 28. Cell viability in Huh 7.5 cells after treatment for 24 hours with Halofuginone. Cell viability was measured using alamarBlue staining in HuH 7.5 cells at indicated concentrations of halofuginone after a 24 hr treatment (n=3 per dose). Data shown as mean±S.D. Statistics performed by 1-way ANOVA (ns: p>0.05, *:p≤0.01).
Cell Culture. Huh-7.5 cells^1 were generously provided by Charles M. Rice (Rockefeller University, New York, NY). Hep3B, BHK-15 and Calu-3 cells were from ATCC and were grown in DMEM medium containing 10% % fetal bovine serum, and 100 IU/ml of penicillin, 100 μg/ml of streptomycin sulfate and nonessential amino acids. BHK-15 were grown in Modified Eagle's supplemented with 10% fetal bovine serum and nonessential amino acids (Gibco, #11140-050). Hep3B, A375 and Vero E6 cells were from ATCC. The Hep3B cells carrying mutations in HS biosynthetic enzymes was derived from the parent ATCC Hep3B stock, and have been described previously^2. All cells were supplemented with 10% FBS, 100 IU/ml of penicillin and 100 μg/ml of streptomycin sulfate and grown under an atmosphere of 5% CO2 and 95% air. Cells were passaged before 80% confluence was reached and seeded as explained for the individual assays. Cell viability was measured using LDH leakage (Promega) or alamarBleu (Thermo Fisher).

[5] = test system: HIV-1; test: HIV-1 antiviral immunofluorescence assay in HeLa Tzmbl cells; type: cell-based; conditions: Human immunodeficiency virus 1, read-out: EC50 HIV-1
Procedure: as §1, §2, §3, §4, §5, §6, §7

[6] = test system: hepcidin expression; test: Hepcidin and SMAD7 expression in HepG2 human hepatocytes; type: cell-based; conditions: HepG2, 24 hr incubation
Procedure: FIG. 8A and FIG. 8B. HepG2—24 hr incubation.

[7] = test system: authentic SARS-CoV-2; test: microbe, parasite or virus in culture; type: cell-based
[8] = test system: cell surface heparan sulfate of Hep3B cells; test: Heparan sulfate presentation by anti-HS mAb 10E4 staining of Hep3B cells; type: cell-based, human
[9] = test system: Hep3B cells transcriptome; test: RNA-Seq of Hep3B cells treated with halofuginone; type: cell-based, human
[10] = test system: hepcidin expression; test: Hepcidin expression in Hep3B human hepatocytes; type: cell-based
Procedure: FIG. 6. Hep3B—18 hr incubation.
FIG. 7. Hep3B—24 hr incubation.

SMILES: O=C(CC1NCCCC1O)Cn1cnc2cc(Br)c(Cl)cc2c1=O (racemic) [halofuginone]
- EC50 [1]: 0.0354 µM
- effect on spike (RBD) protein binding [2]: dose-dependently inhibited spike protein binding
- reduction in spike RBD binding [2]: 5 fold
- effect on spike (RBD) protein binding ([2]; listed as Halofuginone): reduced spike RBD protein binding
- IC50 ([3]; Severe acute respiratory syndrome coronavirus 2, Vero C1008, read-out: IC50 of SARS-CoV-2 spike intracellular mRNA levels): 0.0349 µM
- reduction of SARS-CoV-2 spike intracellular mRNA levels [3]: more than 20,000 fold
- cell viability [4]: without affecting cell viability
- EC50 [5]: 0.0236 µM
- BMP induced expression of hepcidin [6]: inhibits BMP induced expression of hepcidin
- SMAD7 levels [6]: increases SMAD7 levels
- inflammation (IL6) induced expression of hepcidin [6]: inhibits inflammation (1L6) induced expression of hepcidin
- IC50 ([7]; Severe acute respiratory syndrome coronavirus 2, Vero C1008, Vero E6, excess proline in the media (4 mM), read-out: IC50 of SARS-CoV-2 infection, proline rescue experiment): 0.21 µM
- IC50 ([7]; Severe acute respiratory syndrome coronavirus 2, Vero C1008, Vero E6, without excess proline, read-out: IC50 of SARS-CoV-2 infection, proline rescue experiment): 0.0125 µM
- IC50 ([7]; Severe acute respiratory syndrome coronavirus 2, Vero C1008, Vero E6, read-out: IC50 of SARS-CoV-2 infectivity, enantiomer comparison): 0.028 µM
- IC50 ([7]; Severe acute respiratory syndrome coronavirus 2, Vero C1008, read-out: IC50 of SARS-CoV-2 infection): 0.013 µM
- effect on authentic SARS-CoV-2 infection ([7]; Vero E6): inhibit SARS-CoV-2 infection
- potency compared to chloroquine ([7]; Vero E6): 100 fold
- inhibition of SARS-CoV-2 infectivity ([7]; Vero E6, 50 nM): completely inhibited SARS-CoV-2 infectivity
- inhibition of SARS-CoV-2 infectivity ([7]; Vero E6, doses greater than 10 nM): complete inhibition of SARS-CoV-2 infectivity
- effect on heparan sulfate presentation (10E4 binding) ([8]; listed as Halofuginone): dose-dependently reduced 10E4 binding; also recorded: dose-dependently reduced the presence of cell surface heparan sulfate
- effect on heparan sulfate presentation (10E4 binding) ([8]; listed as halofuginone (MAZ1392)): reduced heparan sulfate presentation
- ATF4-mediated integrated stress response (ISR) ([9]; Hep3B RNA-Seq): induced a general ATF4-mediated ISR
- expression of host factors exploited by SARS-CoV-2, TMPRSS2 and ACE2 ([9]; Hep3B RNA-Seq): No significant difference in expression
- mRNA of HSPGs GPC2 (GPC1) and SDC1 with HS biosynthetic enzymes B3GAT3 and EXTL3 ([9]; Hep3B RNA-Seq): significantly downregulated
- unfolded protein-induced ER stress response ([9]; Hep3B RNA-Seq): did not activate the unfolded protein-induced ER stress response
- differentially expressed genes ([9]; Hep3B, 200 or 500 nM, 6 h and 18 h): ~2700 genes
- basal hepcidin expression ([10]; 18 hr incubation): inhibits basal hepcidin expression
- BMP6 induced expression of hepcidin ([10]; 24 hr incubation): inhibits BMP6 induced expression of hepcidin
